According to patent publication US9708314B2, “Heterocyclic amide compound” (NISSAN CHEMICAL INDUSTRIES, LTD., priority 2013, dated 2017):

Columns and labels:
Type in all cases: in vivo
[1] = tested on: directly sowed Oryza sativa; test: Test Example 3: effect on crop by application to foliage (Wagner pot, water depth 0.1-0.5 cm); settings: Nineteenth Table; application herbicide amount 320 g/ha
Summary of the method: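 Grading uses six bands of herbicidal ratio, from 0 (≤5%, almost no effect) to 5 (≥90%, almost completely withered). Treatment was a stem-and-leaf spray of diluted emulsion at a fixed g/ha on 14-day-old plants; evaluation after three weeks.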

Galium spurium = test: Test Example 4: herbicidal effect by application to foliage (diluvial soil, plastic box); settings: application to foliage, application herbicide amount 320 g/ha
Summary of the method: (§1)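 Plants were grown in sterilized diluvial soil in a greenhouse at 25-30° C for 14 days, then sprayed on stems and leaves with water-diluted emulsion formulation at set rates in g/ha. Weed control and crop injury were scored 3 weeks after treatment on a 0-5 herbicidal-ratio scale, from 0 (≤5%) to 5 (≥90%).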

Lolium multiflorum Lam. = test: as above; settings: application to foliage, application herbicide amount 320 g/ha
Summary of the method: as §1

Alopecurus myosuroides = test: as above; settings: application to foliage, application herbicide amount 320 g/ha
Summary of the method: as §1

Digitaria ciliaris = test: as above; settings: application to foliage, application herbicide amount 320 g/ha
Summary of the method: as §1

Amaranthus retroflexus = test: as above; settings: application to foliage, application herbicide amount 320 g/ha
Summary of the method: as §1

Setaria viridis = test: as above; settings: application to foliage, application herbicide amount 320 g/ha
Summary of the method: as §1

Abutilon theophrasti = test: as above; settings: application to foliage, application herbicide amount 320 g/ha
Summary of the method: as §1

Avena fatua = test: as above; settings: application to foliage, application herbicide amount 320 g/ha
Summary of the method: as §1

Apera spica-venti. = test: as above; settings: application to foliage, application herbicide amount 320 g/ha
Summary of the method: as §1

Veronica persica = test: as above; settings: application to foliage, application herbicide amount 320 g/ha
Summary of the method: as §1

Stellaria media = test: as above; settings: application to foliage, application herbicide amount 320 g/ha
Summary of the method: as §1

Structure (SMILES): Cc1nnc(NC(=O)c2ccc(C(F)(F)F)n3c(-c4ccc(Cl)cc4)nnc23)o1 [1-017]
- b (directly sowed Oryza sativa) effect on crop grade [1]: 0 (Herbicidal ratio of 5% or less (almost no effect))
- Q (Galium spurium) herbicidal effect (Galium spurium): 0 (Herbicidal ratio of 5% or less (almost no effect))
- K (Lolium multiflorum Lam.) herbicidal effect (Lolium multiflorum Lam.): 0 (Herbicidal ratio of 5% or less (almost no effect))
- J (Alopecurus myosuroides) herbicidal effect (Alopecurus myosuroides): 0 (Herbicidal ratio of 5% or less (almost no effect))
- F (Digitaria ciliaris) herbicidal effect (Digitaria ciliaris): 3 (Herbicidal ratio of 40% or more and less than 70%)
- N (Amaranthus retroflexus) herbicidal effect (Amaranthus retroflexus): 5 (Herbicidal ratio of 90% or more (almost completely withered))
- G (Setaria viridis) herbicidal effect (Setaria viridis): 0 (Herbicidal ratio of 5% or less (almost no effect))
- M (Abutilon theophrasti) herbicidal effect (Abutilon theophrasti): 5 (Herbicidal ratio of 90% or more (almost completely withered))
- I (Avena fatua) herbicidal effect (Avena fatua): 0 (Herbicidal ratio of 5% or less (almost no effect))
- L (Apera spica-venti.) herbicidal effect (Apera spica-venti.): 0 (Herbicidal ratio of 5% or less (almost no effect))
- R (Veronica persica) herbicidal effect (Veronica persica): 4 (Herbicidal ratio of 70% or more and less than 90%)
- P (Stellaria media) herbicidal effect (Stellaria media): 4 (Herbicidal ratio of 70% or more and less than 90%)

Structure (SMILES): COCCOCc1nnc2c(C(=O)Nc3nnc(C)o3)ccc(C(F)(F)F)n12 [1-019]
- b (directly sowed Oryza sativa) effect on crop grade [1]: 4 (Herbicidal ratio of 70% or more and less than 90%)
- Q (Galium spurium) herbicidal effect (Galium spurium): 4 (Herbicidal ratio of 70% or more and less than 90%)
- K (Lolium multiflorum Lam.) herbicidal effect (Lolium multiflorum Lam.): 2 (Herbicidal ratio of 20% or more and less than 40%)
- J (Alopecurus myosuroides) herbicidal effect (Alopecurus myosuroides): 2 (Herbicidal ratio of 20% or more and less than 40%)
- F (Digitaria ciliaris) herbicidal effect (Digitaria ciliaris): 5 (Herbicidal ratio of 90% or more (almost completely withered))
- N (Amaranthus retroflexus) herbicidal effect (Amaranthus retroflexus): 5 (Herbicidal ratio of 90% or more (almost completely withered))
- G (Setaria viridis) herbicidal effect (Setaria viridis): 4 (Herbicidal ratio of 70% or more and less than 90%)
- M (Abutilon theophrasti) herbicidal effect (Abutilon theophrasti): 4 (Herbicidal ratio of 70% or more and less than 90%)
- I (Avena fatua) herbicidal effect (Avena fatua): 3 (Herbicidal ratio of 40% or more and less than 70%)
- L (Apera spica-venti.) herbicidal effect (Apera spica-venti.): 4 (Herbicidal ratio of 70% or more and less than 90%)
- R (Veronica persica) herbicidal effect (Veronica persica): 4 (Herbicidal ratio of 70% or more and less than 90%)
- P (Stellaria media) herbicidal effect (Stellaria media): 5 (Herbicidal ratio of 90% or more (almost completely withered))

Structure (SMILES): Cc1nnc(NC(=O)c2ccc(C(F)(F)F)n3c(COCC(F)(F)F)nnc23)o1 [1-020]
- b (directly sowed Oryza sativa) effect on crop grade [1]: 2 (Herbicidal ratio of 20% or more and less than 40%)
- Q (Galium spurium) herbicidal effect (Galium spurium): 3 (Herbicidal ratio of 40% or more and less than 70%)
- K (Lolium multiflorum Lam.) herbicidal effect (Lolium multiflorum Lam.): 1 (Herbicidal ratio of 5% or more and less than 20%)
- J (Alopecurus myosuroides) herbicidal effect (Alopecurus myosuroides): 1 (Herbicidal ratio of 5% or more and less than 20%)
- F (Digitaria ciliaris) herbicidal effect (Digitaria ciliaris): 4 (Herbicidal ratio of 70% or more and less than 90%)
- N (Amaranthus retroflexus) herbicidal effect (Amaranthus retroflexus): 4 (Herbicidal ratio of 70% or more and less than 90%)
- G (Setaria viridis) herbicidal effect (Setaria viridis): 3 (Herbicidal ratio of 40% or more and less than 70%)
- M (Abutilon theophrasti) herbicidal effect (Abutilon theophrasti): 2 (Herbicidal ratio of 20% or more and less than 40%)
- I (Avena fatua) herbicidal effect (Avena fatua): 1 (Herbicidal ratio of 5% or more and less than 20%)
- L (Apera spica-venti.) herbicidal effect (Apera spica-venti.): 1 (Herbicidal ratio of 5% or more and less than 20%)
- R (Veronica persica) herbicidal effect (Veronica persica): 3 (Herbicidal ratio of 40% or more and less than 70%)
- P (Stellaria media) herbicidal effect (Stellaria media): 4 (Herbicidal ratio of 70% or more and less than 90%)
